Reference: EP1072247A2, “Cosmetic and dermatological compositions based on o/w emulsions” (Beiersdorf Aktiengesellschaft, priority 1999, dated 2001)

Assay: Interfacial tension of lipids against water (measure of polarity)
Assay type: physicochemical
Details: lipids below 30 mN/m are regarded as polar
Excerpt: Öle und Fette unterscheiden sich unter anderem in ihrer Polarität, welche schwierig zu definieren ist. Es wurde bereits vorgeschlagen, die Grenzflächenspannung gegenüber Wasser als Maß für den Polaritätsindex eines Öls bzw. einer Ölphase anzunehmen. Dabei gilt, daß die Polarität der betreffenden Ölphase um so größer ist, je niedriger die Grenzflächenspannung zwischen dieser Ölphase und Wasser ist. Erfindungsgemäß wird die Grenzflächenspannung als ein mögliches Maß für die Polarität einer gegebenen Ölkomponente angesehen.
Die Grenzflächenspannung ist diejenige Kraft, die an einer gedachten, in der Grenzfläche zwischen zwei Phasen befindlichen Linie der Länge von einem Meter wirkt. Die physikalische Einheit für diese Grenzflächenspannung errechnet sich klassisch nach der Beziehung Kraft/Länge und wird gewöhnlich in mN/m (Millinewton geteilt durch Meter) wiedergegeben. Sie hat positives Vorzeichen, wenn sie das Bestreben hat, die Grenzfläche zu verkleinern. Im umgekehrten Falle hat sie negatives Vorzeichen. Als polar im Sinne der vorliegenden Erfindung werden Lipide angesehen, deren Grenzflächenspannung gegen Wasser weniger als 30 mN/m beträgt.
Unpolare Öle sind beispielsweise solche, welche gewählt werden aus der Gruppe der verzweigten und unverzweigten Kohlenwasserstoffe und -wachse, insbesondere Vaseline (Petrolatum), Paraffinöl, Squalan und Squalen, Polyolefine und hydrogenierte Polyisobutene. […] Tabelle 1

With Octyl Palmitate [Cegesoft® C24] as the compound, how does the “Grenzflächenspannungen gegen Wasser” value read?
Its value is 23,1 mN/m.

With Octyl Stearate [Cetiol® 868] as the compound, how does the “Grenzflächenspannungen gegen Wasser” value read?
The value was 28,4 mN/m.

For `CCCCCCCCCCCCCCCCCC(=O)OC(C)C` [Isopropylstearat, Isopropyl Stearate], which “Grenzflächenspannungen gegen Wasser” value is on record?
Its value is 21,9 mN/m.

With `CCCCCCCC(=O)OCC(COC(=O)CCCCCCC)OC(=O)CCCCCCC` [Trivent® OCG, Tricaprylin] as the compound, how does the “Grenzflächenspannungen gegen Wasser” value read?
The value was 20,2 mN/m.

With `CCCCCCCCCCCCCCCCCCOC(=O)CCCCCC` [Tegosoft® SH, Stearyl Heptanoate] as the compound, how does the “Grenzflächenspannungen gegen Wasser” value read?
Its value is 28,7 mN/m.

For `CCCCCCCCOC(=O)CCCCCCCCCCCCCCC(C)C` [Prisorine® 2036, Octyl Isostearate], which “Grenzflächenspannungen gegen Wasser” value is on record?
Its value is 29,7 mN/m.

For `CCCCCCCCOCCCCCCCC` [Cetiol® OE, Dicaprylyl Ether], which “Grenzflächenspannungen gegen Wasser” value is on record?
The value was 22,1 mN/m.
